Consider 31 compounds from patent US8822467B2 (Ligand Pharmaceuticals Inc., priority 2009, dated 2014).

SMILES strings stand for the structures.

The target of one test is T1, human CRTH2 (Homo sapiens, UniProt Q9Y5Y4).
T1 construct: expressed in transfected cells
T1 sequence (Q9Y5Y4 1-395): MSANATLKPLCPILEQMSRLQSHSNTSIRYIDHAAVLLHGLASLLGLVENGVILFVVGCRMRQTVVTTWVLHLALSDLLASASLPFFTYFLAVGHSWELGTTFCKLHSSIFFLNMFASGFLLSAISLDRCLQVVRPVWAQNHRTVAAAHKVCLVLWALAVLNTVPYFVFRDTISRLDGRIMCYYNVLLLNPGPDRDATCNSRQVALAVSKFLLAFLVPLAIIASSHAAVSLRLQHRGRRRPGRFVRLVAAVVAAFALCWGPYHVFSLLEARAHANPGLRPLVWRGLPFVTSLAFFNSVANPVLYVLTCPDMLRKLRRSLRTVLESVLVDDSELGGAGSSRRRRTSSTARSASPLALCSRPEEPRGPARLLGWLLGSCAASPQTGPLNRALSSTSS
The test is described as follows: [35S]GTPγS binding assay (SPA) on membranes from CHO-K1 cells stably expressing human CRTH2, stimulated with 60 nM DHK-PGD2. The format is biochemical. The note with it: membranes of CHO-K1 cells expressing human CRTH2; 60 nM DHK-PGD2; Table 1; read-out: CRTH2 hGTPγS IC50. The method, boiled down:
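Read-out is scintillation proximity: bound [35S]GTPγS (500 pM, with 10 μM GDP) was counted 4 h after centrifuging a 2 h ambient-temperature incubation. Reactions held 4 μg human CRTH2 CHO-K1 membrane protein, 60 nM DHK-PGD2 agonist and test compounds at increasing concentrations. Buffer: 20 mM HEPES pH 7.4, 10 mM MgCl2, 300 mM NaCl, 0.2% BSA, 1% DMSO.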
A general note: GTPγS is a poorly hydrolysed GTP analogue; its binding reports G protein activation.
The term IC50 denotes the midpoint of a concentration-inhibition curve. As to `CN(Cc1ccc(OCC(=O)O)c(-c2cc(F)cc(C#N)c2)c1)S(=O)(=O)c1cccc(Cl)c1` [Example 45, 2-(3-cyano-5-fluorophenyl)-4-((3-chloro-N-methylphenylsulfonamido)methyl)phenoxyacetic acid], the IC50 is 0.002 µM.

Consider `N#Cc1cc(F)cc(-c2cc(CNS(=O)(=O)c3ccc(F)c(F)c3)ccc2OCC(=O)O)c1` [Example 194, 2-(3-cyano-5-fluorophenyl)-4-((3,4-difluorophenylsulfonamido)methyl)phenoxyacetic acid], for which the IC50 was 0.015 µM.

Staying with this test, now noted: potency class symbols; Table 2; read-out: CRTH2 hGTPγS IC50.
Regarding `CN(Cc1ccc(OCC(=O)O)c(-c2cccc(C(F)(F)F)n2)c1)S(=O)(=O)c1ccc(F)cc1` [Example 127, 2-(6-trifluoromethyl-2-pyridinyl)-4-((4-fluoro-N-methylphenylsulfonamido)methyl)phenoxyacetic acid], the IC50 lay in the range of 0.1 to 1 µM.

For `CN(Cc1ccc(OCC(=O)O)c(-c2cccc(C(F)(F)F)c2)c1)S(=O)(=O)c1ccc(C#N)cc1` [Example 120, 2-(3-trifluoromethylphenyl)-4-((4-cyano-N-methylphenylsulfonamido)methyl)phenoxyacetic acid], the IC50 lay within 0.1 to 1 µM.

For `CN(Cc1ccc(OCC(=O)O)c(-c2cc(F)cc(C#N)c2)c1)S(=O)(=O)c1cccc(Cl)c1` [Example 45, 2-(3-cyano-5-fluorophenyl)-4-((3-chloro-N-methylphenylsulfonamido)methyl)phenoxyacetic acid], the IC50 was < 0.1 µM.

Turning to `CN(Cc1ccc(OCC(=O)O)c(-c2cccc(C(F)(F)F)c2)c1)S(=O)(=O)c1ccccc1` [Example 131, 2-(3-trifluoromethylphenyl)-4-((N-methylphenylsulfonamido)methyl)phenoxyacetic acid], the IC50 lay in the range of 0.1 to 1 µM.

As to `CC(C)N(Cc1ccc(OCC(=O)O)c(-c2cccc(C(F)(F)F)c2)c1)S(=O)(=O)c1ccc(F)cc1` [Example 158, 2-(3-trifluoromethylphenyl)-4-((4-fluoro-N-isopropylphenylsulfonamido)methyl)phenoxyacetic acid], the half-maximal inhibitory concentration (IC50) lay in the range of 1 to 10 µM.

Turning to `CN(Cc1ccc(OCC(=O)O)c(-c2cccc(S(N)(=O)=O)c2)c1)S(=O)(=O)c1ccc(F)cc1` [Example 52, 2-(3-aminosulfonylphenyl)-4-((4-fluoro-N-methylphenylsulfonamido)methyl)phenoxyacetic acid], the IC50 was < 0.1 µM.

For `CNS(=O)(=O)c1cccc(-c2cc(CN(C)S(=O)(=O)c3ccc(F)cc3)ccc2OCC(=O)O)c1` [Example 54, 2-(3-N-methylsulfamoylphenyl)-4-((4-fluoro-N-methylphenylsulfonamido)methyl)phenoxyacetic acid], the IC50 is < 0.1 µM.

For `COc1ccccc1S(=O)(=O)N(C)Cc1ccc(OCC(=O)O)c(-c2cccc(C(F)(F)F)c2)c1` [Example 146, 2-(3-trifluoromethylphenyl)-4-((2-methoxy-N-methylphenylsulfonamido)methyl)phenoxyacetic acid], the IC50 lay within 0.1 to 1 µM.

For `CN(Cc1ccc(OCC(=O)O)c(-c2cccc(S(C)(=O)=O)c2)c1)S(=O)(=O)c1ccc(F)c(F)c1` [Example 47, 2-(3-methylsulfonylphenyl)-4-((3,4-difluoro-N-methylphenylsulfonamido)methyl)phenoxyacetic acid], the half-maximal inhibitory concentration (IC50) is < 0.1 µM.

Regarding `CN(Cc1ccc(OCC(=O)O)c(-c2ccc(Cl)cc2)c1)S(=O)(=O)c1ccc(F)cc1` [Example 165, 2-(4-chlorophenyl)-4-((4-fluoro-N-methylphenylsulfonamido)methyl)phenoxyacetic acid], the IC50 lay in the range of 1 to 10 µM.

Consider `Cc1ccc(S(=O)(=O)N(C)Cc2ccc(OCC(=O)O)c(-c3cccc(C#N)c3)c2)cc1F` [Example 92, 2-(3-cyanophenyl)-4-((3-fluoro-4-methyl-N-methylphenylsulfonamido)methyl)phenoxyacetic acid], for which the IC50 was < 0.1 µM.

`CN(Cc1ccc(OCC(=O)O)c(-c2ccc[n+]([O-])c2)c1)S(=O)(=O)c1ccc(F)cc1` [Example 176, 2-(N-oxy-pyridine-3-yl)-4-((4-fluoro-N-methylphenylsulfonamido)methyl)phenoxyacetic acid]: the IC50 is 1 to 10 µM.

In the case of `CN(Cc1ccc(OCC(=O)O)c(-c2cccc(S(C)(=O)=O)c2)c1)S(=O)(=O)c1cc(F)cc(F)c1` [Example 72, 2-(3-methylsulfonylphenyl)-4-((3,5-difluoro-N-methylphenylsulfonamido)methyl)phenoxyacetic acid], the IC50 is < 0.1 µM.

Take `CN(Cc1cc(F)c(OCC(=O)O)c(-c2cc(F)cc(F)c2)c1)S(=O)(=O)c1ccc(F)cc1` [Example 139, 2-(3,5-difluorophenyl)-4-((4-fluoro-N-methylphenylsulfonamido)methyl)-6-fluorophenoxyacetic acid]: the half-maximal inhibitory concentration (IC50) lay within 0.1 to 1 µM.

Turning to `Cc1cc(S(=O)(=O)N(C)Cc2ccc(OCC(=O)O)c(-c3cc(F)cc(F)c3)c2)ccc1F` [Example 82, 2-(3,5-difluorophenyl)-4-((3-methyl-4-fluoro-N-methylphenylsulfonamido)methyl)phenoxyacetic acid], the IC50 is < 0.1 µM.

`CCN(Cc1ccc(OCC(=O)O)c(-c2cccc(C(F)(F)F)c2)c1)S(=O)(=O)c1ccc(F)cc1` [Example 140, 2-(3-trifluoromethylphenyl)-4-((4-fluoro-N-ethylphenylsulfonamido)methyl)phenoxyacetic acid]: the IC50 lay in the range of 0.1 to 1 µM.

`N#Cc1cc(F)cc(-c2cc(CNS(=O)(=O)c3ccc(F)c(F)c3)ccc2OCC(=O)O)c1` [Example 194, 2-(3-cyano-5-fluorophenyl)-4-((3,4-difluorophenylsulfonamido)methyl)phenoxyacetic acid]: the IC50 was < 0.1 µM.

Consider `COc1cccc(-c2cc(CN(C)S(=O)(=O)c3ccc(F)cc3)ccc2OCC(=O)O)c1` [Example 133, 2-(3-methoxyphenyl)-4-((4-fluoro-N-methylphenylsulfonamido)methyl)phenoxyacetic acid], for which the IC50 fell in the range of 0.1 to 1 µM.

With `CN(Cc1ccc(OCC(=O)O)c(-c2cccc(S(C)(=O)=O)c2)c1)S(=O)(=O)c1ccccc1F` [Example 94, 2-(3-methylsulfonylphenyl)-4-((2-fluoro-N-methylphenylsulfonamido)methyl)phenoxyacetic acid], the IC50 is < 0.1 µM.

In the case of `Cc1cccc(-c2cc(CN(C)S(=O)(=O)c3ccc(F)cc3)ccc2OCC(=O)O)c1` [Example 156, 2-(3-methylphenyl)-4-((4-fluoro-N-methylphenylsulfonamido)methyl)phenoxyacetic acid], the IC50 lay within 1 to 10 µM.

Turning to `CC(C)c1cccc(-c2cc(CN(C)S(=O)(=O)c3ccc(F)cc3)ccc2OCC(=O)O)c1` [Example 117, 2-(3-isopropylphenyl)-4-((4-fluoro-N-methylphenylsulfonamido)methyl)phenoxyacetic acid], the IC50 is 0.1 to 1 µM.

Turning to `CN(Cc1ccc(OCC(=O)O)c(-c2cncc(C(F)(F)F)c2)c1)S(=O)(=O)c1ccc(F)cc1` [Example 119, 2-(3-trifluoromethyl-5-pyridinyl)-4-((4-fluoro-N-methylphenylsulfonamido)methyl)phenoxyacetic acid], the IC50 lay within 0.1 to 1 µM.

As for `COc1cccc(S(=O)(=O)N(C)Cc2ccc(OCC(=O)O)c(-c3cccc(C(F)(F)F)c3)c2)c1` [Example 153, 2-(3-trifluoromethylphenyl)-4-((3-methoxy-N-methylphenylsulfonamido)methyl)phenoxyacetic acid], the IC50 was 1 to 10 µM.

In the case of `CN(Cc1ccc(OCC(=O)O)c(-c2cccc(C#N)c2)c1)S(=O)(=O)c1cccc(Cl)c1` [Example 70, 2-(3-cyanophenyl)-4-((3-chloro-N-methylphenylsulfonamido)methyl)phenoxyacetic acid], the IC50 was < 0.1 µM.

Turning to `CN(Cc1ccc(OCC(=O)O)c(-c2cnccn2)c1)S(=O)(=O)c1ccc(F)cc1` [Example 155, 2-(pyrazinyl)-4-((4-fluoro-N-methylphenylsulfonamido)methyl)phenoxyacetic acid], the IC50 fell in the range of 1 to 10 µM.

`CN(Cc1ccc(OCC(=O)O)c(-c2cc(F)cc(C#N)c2)c1)S(=O)(=O)c1cccc(F)c1` [Example 61, 2-(3-cyano-5-fluorophenyl)-4-((3-fluoro-N-methylphenylsulfonamido)methyl)phenoxyacetic acid]: the IC50 is < 0.1 µM.

Regarding `CN(Cc1ccc(OCC(=O)O)c(-c2cc(F)cc(C#N)c2)c1)S(=O)(=O)c1ccc(Cl)s1` [Example 191, 2-(3-cyano-5-fluorophenyl)-4-((2-chloro-N-methylthiophene-5-sulfonamido)methyl)phenoxyacetic acid], the IC50 is < 0.1 µM.

For the compound `CN(Cc1ccc(OCC(=O)O)c(-c2cccc(S(C)(=O)=O)c2)c1)S(=O)(=O)c1ccccc1` [Example 78, 2-(3-methylsulfonylphenyl)-4-((N-methylphenylsulfonamido)methyl)phenoxyacetic acid], the IC50 is < 0.1 µM.

Regarding `COCc1cccc(-c2cc(CN(C)S(=O)(=O)c3ccc(F)cc3)ccc2OCC(=O)O)c1` [Example 114, 2-(3-methoxymethylphenyl)-4-((4-fluoro-N-methylphenylsulfonamido)methyl)phenoxyacetic acid], the IC50 lay in the range of 0.1 to 1 µM.

Consider `CN(Cc1ccc(OCC(=O)O)c(-c2cc(Cl)cc(C#N)c2)c1)S(=O)(=O)c1ccc(F)cc1` [Example 207, 2-(3-cyano-5-chloro-phenyl)-4-((4-fluoro-N-methylphenylsulfonamido)methyl)phenoxyacetic acid], for which the IC50 was < 0.1 µM.

Turning to `CN(Cc1ccc(OCC(=O)O)c(-c2cccc(C#N)c2)c1)S(=O)(=O)c1cccc(C(F)(F)F)c1` [Example 102, 2-(3-cyanophenyl)-4-((3-trifluoromethyl-N-methylphenylsulfonamido)methyl)phenoxyacetic acid], the IC50 lay in the range of 0.1 to 1 µM.
